We go through 41 molecules from article PMC11200976, “Pitavastatin Calcium Confers Fungicidal Properties to Fluconazole by Inhibiting Ubiquinone Biosynthesis and Generating Reactive Oxygen Species” (Antioxidants, 2024).

Counter-ions that a name gives are not always drawn.

The first assay relates to C. albicans. Put plainly: Broth microdilution assay of synergistic lethality with 4 μg/mL FLC (recovery on drug-free YPD). Type of assay: cell-based, Candida albicans.
Details: not given
In general terms: In broth dilution the organism is exposed to a series of concentrations in liquid medium.
For `Br.NC(=O)C(c1ccccc1)(c1ccccc1)[C@@H]1CCN(CCc2ccc3c(c2)CCO3)C1` [Darifenacin (hydrobromide)], the Synergistic lethal concentrations was 100 µM.

The assay is the same for the next values; noted with them: concentration of the compound that is synergistically lethal with 4 μg/mL FLC; C. albicans; recovery on drug-free YPD.
Regarding `CN(C)[C@@H](CCOc1cccc2ccccc12)c1ccccc1.Cl` [Dapoxetine (hydrochloride)], the Synergistic lethal concentrations worked out at 50 µM.

As for `O=C(CCCN1CC=C(n2c(=O)[nH]c3ccccc32)CC1)c1ccc(F)cc1` [Droperidol], the Synergistic lethal concentrations is 100 µM.

As to `CNCCCN1c2ccccc2CCc2ccccc21` [Desipramine hydrochloride], the Synergistic lethal concentrations was found to be 100 µM.

Regarding `CC=CC(=O)N(CC)c1ccccc1C` (mixture of isomers) [Crotamiton], the Synergistic lethal concentrations was 100 µM.

In the case of `C=C/C=C/C[C@@H](C)[C@@H](O)[C@H]1C(=O)N[C@@H](CC)C(=O)N(C)CC(=O)N(C)[C@@H](CC(C)C)C(=O)N[C@@H](C(C)C)C(=O)N(C)[C@@H](CC(C)C)C(=O)N[C@@H](C)C(=O)N[C@H](C)C(=O)N(C)[C@@H](CC(C)C)C(=O)N(C)[C@@H](CC(C)C)C(=O)N(C)[C@@H](C(C)C)C(=O)N1C` [Voclosporin], the Synergistic lethal concentrations was determined as 0.1953 µM.

With `CCOC(=O)C1=C(COCCN)NC(C)=C(C(=O)OC)[C@@H]1c1ccccc1Cl.O=S(=O)(O)c1ccccc1` [Levamlodipine besylate], the Synergistic lethal concentrations was found to be 100 µM.

In the case of `C=CC(=O)Nc1cc(Nc2nccc(-c3cn(C)c4ccccc34)n2)c(OC)cc1N(C)CCN(C)C.CS(=O)(=O)O.CS(=O)(=O)O` [Osimertinib (dimesylate)], the Synergistic lethal concentrations was 100 µM.

Consider `Nc1c2ccccc2nc2ccccc12` [9-Aminoacridine], for which the Synergistic lethal concentrations turned out to be 100 µM.

As to `Cc1ccc([C@@H]2O[C@H](CO)[C@@H](O)[C@H](O)[C@H]2O)cc1Cc1ccc(-c2ccc(F)cc2)s1` [Canagliflozin], the Synergistic lethal concentrations came to 100 µM.

For `CN(C/C=C/C#CC(C)(C)C)Cc1cccc2ccccc12` [Terbinafine], the Synergistic lethal concentrations came out at 6.25 µM.

Turning to `Cn1ncnc1[C@H]1c2n[nH]c(=O)c3cc(F)cc(c23)N[C@@H]1c1ccc(F)cc1` [Talazoparib tosylate], the Synergistic lethal concentrations was 100 µM.

For the molecule `Cc1onc(-c2ccccc2)c1-c1ccc(S(N)(=O)=O)cc1` [Valdecoxib], the Synergistic lethal concentrations was 100 µM.

Take `OCCN1CCN(CCCN2c3ccccc3Sc3ccc(Cl)cc32)CC1` [Perphenazine]: the Synergistic lethal concentrations worked out at 25 µM.

As for `CCCCCCc1ccc(O)cc1O` [Hexylresorcinol], the Synergistic lethal concentrations was 12.5 µM.

Turning to `Cl.OC(c1cc(C(F)(F)F)nc2c(C(F)(F)F)cccc12)C1CCCCN1` (centres unmarked) [Mefloquine (hydrochloride)], the Synergistic lethal concentrations came to 25 µM.

`COc1cc(Nc2c(C#N)cnc3cc(OCCCN4CCN(C)CC4)c(OC)cc23)c(Cl)cc1Cl` [Bosutinib]: the Synergistic lethal concentrations is 25 µM.

With `CN(C)C/C=C/C(=O)Nc1cc2c(Nc3ccc(F)c(Cl)c3)ncnc2cc1O[C@H]1CCOC1` [Afatinib], the Synergistic lethal concentrations is 100 µM.

Turning to `Oc1c(I)cc(Cl)c2cccnc12` [Clioquinol], the Synergistic lethal concentrations came out at 12.5 µM.

As to `CCCCCCCCCCCCCCCC[N+](C)(C)CCN(Cc1ccc(OC)cc1)c1ncccn1.[Br-]` [Thonzonium (bromide)], the Synergistic lethal concentrations stood at 100 µM.

Take `C=CC(=O)Nc1cc(Nc2nccc(-c3cn(C)c4ccccc34)n2)c(OC)cc1N(C)CCN(C)C.CS(=O)(=O)O` [Osimertinib mesylate]: the Synergistic lethal concentrations came to 50 µM.

Regarding `CN(C)C/C=C/C(=O)Nc1cc2c(Nc3ccc(F)c(Cl)c3)ncnc2cc1O[C@H]1CCOC1.O=C(O)/C=C\C(=O)O.O=C(O)/C=C\C(=O)O` [Afatinib (dimaleate)], the Synergistic lethal concentrations was found to be 100 µM.

For `Cc1cc(Nc2ncc(Cl)c(Nc3ccccc3S(=O)(=O)C(C)C)n2)c(OC(C)C)cc1C1CCNCC1.Cl.Cl` [Ceritinib dihydrochloride], the Synergistic lethal concentrations came out at 12.5 µM.

For the molecule `CC(C)n1c(/C=C/C(O)CC(O)CC(=O)[O-])c(-c2ccc(F)cc2)c2ccccc21.[Na+]` (centres unmarked) [Fluvastatin (sodium)], the Synergistic lethal concentrations is 6.25 µM.

As for `C/C=C(/C)C(=O)O[C@H]1C(C)=C[C@]23C(=O)[C@@H](C=C(CO)[C@@H](O)[C@]12O)[C@H]1[C@@H](C[C@H]3C)C1(C)C` [Ingenol Mebutate], the Synergistic lethal concentrations stood at 100 µM.

In the case of `CCCOc1ccc(S(=O)(=O)N2CCN(CCO)CC2)cc1-c1nc2c(CCC)cn(CC)c2c(=O)[nH]1.Cl.Cl` [Mirodenafil (dihydrochloride)], the Synergistic lethal concentrations came to 100 µM.

For the molecule `N=C(NCCCCCCNC(=N)NC(=N)Nc1ccc(Cl)cc1)NC(=N)Nc1ccc(Cl)cc1.O=C(O)[C@H](O)[C@@H](O)[C@H](O)[C@H](O)CO.O=C(O)[C@H](O)[C@@H](O)[C@H](O)[C@H](O)CO` [Chlorhexidine (digluconate)], the Synergistic lethal concentrations is 6.25 µM.

Turning to `COc1ccc2c(c1)c(CC(=O)O)c(C)n2C(=O)c1ccc(Cl)cc1` [Indomethacin], the Synergistic lethal concentrations came to 100 µM.

Regarding `O=C(NC1CCN(CCCCC2(C(=O)NCC(F)(F)F)c3ccccc3-c3ccccc32)CC1)c1ccccc1-c1ccc(C(F)(F)F)cc1` [Lomitapide], the Synergistic lethal concentrations is 6.25 µM.

`CC(C)c1nc(CN(C)C(=O)N[C@@H](CCN2CCOCC2)C(=O)N[C@H](CC[C@H](Cc2ccccc2)NC(=O)OCc2cncs2)Cc2ccccc2)cs1` [Cobicistat]: the Synergistic lethal concentrations turned out to be 100 µM.

In the case of `CN(C)CCC=C1c2ccccc2C=Cc2ccccc21.Cl` [Cyclobenzaprine (hydrochloride)], the Synergistic lethal concentrations worked out at 100 µM.

As for `CC(O)C(=O)O.CCOc1ccc2nc3cc(N)ccc3c(N)c2c1.O` [Ethacridine (lactate monohydrate)], the Synergistic lethal concentrations came out at 100 µM.

For `CN(C)CCC=C1c2ccccc2CCc2ccccc21.Cl` [Amitriptyline (hydrochloride)], the Synergistic lethal concentrations was determined as 100 µM.

Take `CCCCOc1ccc(CC(=O)NO)cc1` [Bufexamac]: the Synergistic lethal concentrations was 100 µM.

Take `C[C@@H](OC[C@@]1(c2ccccc2)CC[C@]2(CCC(=O)N2)CN1)c1cc(C(F)(F)F)cc(C(F)(F)F)c1` [Rolapitant]: the Synergistic lethal concentrations was found to be 12.5 µM.

With `CN1CCCC(CC2c3ccccc3Sc3ccccc32)C1.Cl.O` (centres unmarked) [Metixene hydrochloride hydrate], the Synergistic lethal concentrations is 25 µM.

Take `CN(C)CCC=C1c2ccccc2C(C)(C)c2ccccc21.Cl` [Melitracen (hydrochloride)]: the Synergistic lethal concentrations was determined as 50 µM.

As to `O=C([O-])C[C@H](O)C[C@H](O)/C=C/c1c(C2CC2)nc2ccccc2c1-c1ccc(F)cc1.O=C([O-])C[C@H](O)C[C@H](O)/C=C/c1c(C2CC2)nc2ccccc2c1-c1ccc(F)cc1.[Ca+2]` [Pitavastatin (Calcium)], the Synergistic lethal concentrations was 1.5625 µM.

Take `CN1CCc2c(c3ccccc3n2Cc2ccccc2)C1` [Mebhydrolin]: the Synergistic lethal concentrations was determined as 100 µM.

With `CC(C)(C)C(O)/C=C/c1ccc2c(c1)OCO2` (centres unmarked) [Stiripentol], the Synergistic lethal concentrations was 100 µM.

In the case of `Cl.OC(CCN1CCCCC1)(c1ccccc1)C1CCCCC1` (centres unmarked) [Trihexyphenidyl (hydrochloride)], the Synergistic lethal concentrations is 100 µM.
